A melting point compilation (Tetko et al.; mined from patent text by program, amines drawn as free bases though some values may be those of a salt)

melting point [°C] | SMILES
146 | C=CCOc1ccc(C(=O)Oc2ccc(O)cc2)cc1
199 to 201 | CCOC1(OCC)OC(C)=C(C(=O)Nc2ccc(Cl)cc2)[C@@H](NC(C)=O)[C@@H]1C (relative stereo)
79 to 82 | N#CC1=C(Nc2ccc(F)cc2)CCCC1
248 to 251 | Cc1nc2c3c(ccn2c1C)C(=O)[C@](O)(Cc1ccccc1)[C@@H](c1ccccc1)N3
178 to 180 | COc1ccc(C(F)(F)F)cc1NC(=O)Nc1ccc(-c2c(C(N)=O)[nH]c3ccccc23)cc1
74 to 75 | OCc1cccc2cccnc12
223 to 225 | CC(C)(C)NC(=O)NC1=CC(=O)CCC1
44 to 46 | FC(F)(F)Sc1[nH]ccc1-c1ccc(Cl)cc1
185 to 186 | Cn1c(CCCOc2ccc(CC3SC(=O)NC3=O)cc2)nc2cccnc21 (configuration not stated)
143 to 144 | COC(=O)COc1ccc([C@H]2c3ccc(OCc4ccccc4)cc3OC[C@H]2c2ccccc2)cc1 (racemic)
191 | CCC12CCC3C4CCC(=O)C=C4CCC3C1=CC=C2c1ccccc1 (configuration not stated)
132 to 134 | COc1ccc(C=CC(=O)O)cc1-c1cc2c(cc1OCCCCCCCC(N)=O)C(C)(C)CCC2(C)C
60 to 61 | Fc1cc(Cc2cccs2)c(Cl)cc1Cl
165 to 167 | CCOCc1nc2c(N)nc3c(c2n1CCCCS(=O)(=O)N(C)C)CCCC3
148 to 150 | CC(=Cc1ccccc1)c1ccc2c(c1)S(=O)(=O)CCC2(C)C
168 to 170 | Cc1ccc(S(=O)(=O)OC2=C(Br)C(=O)c3ccc4c(c3C2=O)CCC(C)(C)O4)cc1
58 | OC[C@H]1C2CCC(C2)[C@@H]1CO
158 to 160 | CS(=O)(=O)c1ccc(CN(C2CCOCC2)S(=O)(=O)c2ccc(Cl)cc2)cc1
> 260 | Cc1cc(C)cc(Oc2c(C=O)c(C)[nH]c(=O)c2I)c1
178 to 180 | Clc1cccc(Nc2ncnc(-c3ccnc(Cl)c3)n2)c1
158 to 159 | Cc1cnc2c(S(=O)(=O)Cl)cccc2c1
207 to 209 | CC1COCc2nc3cnc4cc(Br)ccc4c3n21 (configuration not stated)
143 to 144 | Cc1ccccc1-c1nc(NCCN(C)C)ncc1N(C)C(=O)C(C)(C)c1cc(C(F)(F)F)cc(C(F)(F)F)c1

melting point [°C] | SMILES
6 to 8 | O=C(O)C(Oc1ccccc1)(C(F)(F)F)C(F)(F)F
45 to 50 | CC(=O)C(=NNc1ccccc1)C(=O)OCC(C)C
198 | CN(C)C(=O)C=C(N(C(N)=O)c1cc(F)c(C#N)cc1F)C(F)(F)F
150 to 151 | O=C(OC1C(O)COC(Oc2ccc([N+](=O)[O-])cc2)C1OC(=O)c1ccccc1)c1ccccc1 (configuration not stated)
141 to 142 | CCNC(=O)N1C(=O)[C@H](O)[C@@H]1c1ccccc1
114 to 115 | Cc1ccc(S(=O)(=O)N2CCc3ccccc3C(Oc3ccc(C(F)(F)F)cc3)C2)cc1 (configuration not stated)
116 | NCc1cccc(CNC(=O)C2Cc3ccccc3N2S(=O)(=O)c2ccc(-c3cccc(C(F)(F)F)c3)cc2)c1 (configuration not stated)
208 to 212 | CC(C)(C)OC(=O)NC(Cc1ccccc1)C(O)C(O)C(Cc1ccccc1)NC(=O)OC(C)(C)C (configuration not stated)
27 to 29 | CCC(=O)OCc1c(C)cc([N+](=O)[O-])c(NC(CC)CC)c1[N+](=O)[O-]
127 to 129 | CC(C)OC1CC(O)C(=O)N1S(=O)(=O)c1ccccc1 (configuration not stated)
228 to 230 | O=C1CC(c2cccc(-c3ocnc3C(=O)NCCO)c2)=Nc2ccc(-n3cccc3)cc2N1
207 to 208 | COc1ccc2c(Cc3c(Cl)cncc3Cl)nnc(-n3cncn3)c2c1
70.5 to 72 | CC1=NN(C)C(=O)C1(Cl)C(=O)c1ccccc1 (configuration not stated)
235 to 238 | COc1ccc(/C(=C\C=C\C(=O)O)c2cccnc2)cc1
178 to 180 | CCCCC(=O)NCCc1ccc(S(=O)(=O)NC(=O)c2ccc(C(=O)OC)nc2)cc1
133 to 135 | C=CCc1nc(SC)nc2ccccc12
230 to 234 | NC(=O)c1ncn2c(-c3cc(Cl)ccc3Cl)ccnc12
140 to 142 | COc1nc2cc([N+](=O)[O-])c(C)c(C(=O)NCCC(=O)OC(C)(C)C)c2nc1OC
290 | O=c1[nH]c2c3ccccc3c(=CO)c2n2ccnc12
121 to 123 | CN=C(NS(=O)(=O)c1ccc(Cl)cc1)SC
93.5 to 94.5 | NCC(=O)NC(Cc1cccnc1)c1ccccc1 (configuration not stated)
163 to 166 | Cc1cc2c(cc1C1=NNC(=O)CC1C)NC(=O)CO2 (configuration not stated)
77 to 78 | CCC(C)[C@H](NC(=O)OCC1CCCC1)C(=O)N[C@@H](Cc1ccccc1)C(=O)CSCc1ccco1 (some centres not stated)

melting point [°C] | SMILES
127 to 135 | COc1cc(OCc2cccnc2)ccc1/C=C/c1cc(/C=C/c2ccc3[nH]ccc3c2)n[nH]1
120 | CC(=O)OCC1OC(OC2OC(CO)C(O)C(O)C2O)C(OC(C)=O)C(OC(C)=O)C1OC(C)=O (configuration not stated)
175 to 176 | O=C(NC(C(=O)O)C1CC(Cl)=NO1)OCC1c2ccccc2-c2ccccc21 (configuration not stated)
252 | Nc1ccc(-c2noc(-c3cnn4c(C(F)F)cc(-c5ccc(C(F)(F)F)c(Cl)c5)nc34)n2)cn1
199 to 202 | COc1ccc(CC(NC(c2ccccc2)c2ccccc2)P(O)O)cc1 (configuration not stated)
214 to 215 | Nc1cccc(CN/C=C2\C(=O)NC(=O)c3ccc(Br)cc32)c1
127 | CC(C)(C)OC(=O)N(Cc1ccccc1)S(N)(=O)=O
232 to 233 | O=C(NCc1ccccc1)Nc1nnc(-c2ccc(CN3CCCCCC3)s2)s1
148 to 149 | CCOCC1Cc2cc(S(N)(=O)=O)c(Cl)c(Cl)c2O1 (configuration not stated)
145 to 147 | O=[N+]([O-])C12C3C4C1C1(Cl)C2C3C41[N+](=O)[O-] (configuration not stated)
184 to 185 | COc1ccc(C2=NN(C3CCN(C(=O)N4CCOCC4)CC3)C(=O)[C@@H]3CC=CC[C@H]23)cc1OC
166 | CCOC(=O)c1sccc1S(=O)(=O)NC(=O)Nc1nc(C)nc(OC)n1
71 to 74 | COc1cccc(Oc2ncccc2C(=O)NCc2ccccc2Cl)c1
191 to 194 | CCOC(=O)c1c2n(c3c(Cl)c(F)c(F)cc3c1=O)C(C)S2 (configuration not stated)
24 to 25 | CC(C)Cc1ccc2c(c1)OC(=O)C2
75.8 | Cc1ccc(CSCCC(=O)O)cc1
159 to 162 | O=C(O)c1ccc(NCCCOc2ccccc2)cc1
178 to 179 | O=c1c(CCc2nc3ccccc3s2)cc2cccnc2n1-c1cccc([N+](=O)[O-])c1
212 to 213 | CNC(=O)Nc1n[nH]c(-c2ccncc2)c1-c1ccc(F)cc1
191 to 192 | O=C1OC(c2ccc(F)cc2)C(Cn2cncn2)(c2ccc(Cl)cc2Cl)O1 (configuration not stated)
154 to 155 | N#Cc1cc(N)nc(SCc2ccc3ccccc3c2)n1
275 to 276 | CCOC(=O)c1nc2cc(I)c(I)cc2[nH]c1=O
94 to 96 | Clc1ccc(N2CCN(CCC3OCCc4cc(Br)ccc43)CC2)cc1 (configuration not stated)

SMILES | melting point [°C]
CNC1CC=C(c2c[nH]c3ccc([N+](=O)[O-])cc23)CC1 (configuration not stated) | 208 to 210
CCCCN(CCCC)Cc1nnc(-c2ncn3c2CN(C)C(=O)c2c(Cl)cccc2-3)o1 | 105 to 108
CCN(CC)CC(O)c1c(OC)ccc2c(C)c(C)oc12 (configuration not stated) | 55
